Laboratory results taken from the supplement of paper PMC10307832.

How the values were obtained:
Test in all cases: relative viability (nuclei count vs DMSO), 5 days (fraction); higher = more cells survive
Bortezomib + Phenformin = compound: CC(C)C[C@H](NC(=O)[C@H](Cc1ccccc1)NC(=O)c1cnccn1)B(O)O [Bortezomib] + N=C(N)NC(=N)NCCc1ccccc1 [Phenformin] (partner 250 µM)
In short: (§1)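 Each reported value is a median over duplicate plates. It expresses relative viability: treated-well nuclei count divided by vehicle-well nuclei count. Lung cancer cell lines in 1536-well plates were dosed by pin tool a day after seeding, alone with one drug or with a fixed anchor-drug dose plus five library-drug doses (not always all listed) in √10 steps, and nuclei were counted after 5 days.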

[1] = compound: CC1=CC(=NN1)NC2=CC(=NC(=N2)/C=C/C3=CC=CC=C3)N4CCN(CC4)C + Cc1nc(Nc2ncc(C(=O)Nc3c(C)cccc3Cl)s2)cc(N2CCN(CCO)CC2)n1 [Dasatinib] (partner 0.075 µM)
In short: as §1

Obatoclax + Foretinib = compound: COC1=CC(c2cc3ccccc3[nH]2)=N/C1=C\c1[nH]c(C)cc1C [Obatoclax] + COc1cc2c(Oc3ccc(NC(=O)C4(C(=O)Nc5ccc(F)cc5)CC4)cc3F)ccnc2cc1OCCCN1CCOCC1 [Foretinib] (partner 0.25 µM)
In short: as §1

Obatoclax + Decitabine = compound: COC1=CC(c2cc3ccccc3[nH]2)=N/C1=C\c1[nH]c(C)cc1C [Obatoclax] + Nc1ncn([C@H]2C[C@H](O)[C@@H](CO)O2)c(=O)n1 [Decitabine] (partner 2 µM)
In short: as §1

Cell Line	relative viability (Bortezomib + Phenformin; first compound 0.0002 µM)	relative viability (Bortezomib + Phenformin; first compound 0.000632 µM)	relative viability (Bortezomib + Phenformin; first compound 0.002 µM)	relative viability (Bortezomib + Phenformin; first compound 0.006325 µM)	relative viability (Bortezomib + Phenformin; first compound 0.02 µM)	relative viability ([1]; first compound 0.08 µM)	relative viability ([1]; first compound 0.253 µM)	relative viability ([1]; first compound 0.8 µM)	relative viability ([1]; first compound 2.53 µM)	relative viability ([1]; first compound 8 µM)	relative viability (Obatoclax + Foretinib; first compound 0.01 µM)	relative viability (Obatoclax + Foretinib; first compound 0.03162 µM)	relative viability (Obatoclax + Foretinib; first compound 0.1 µM)	relative viability (Obatoclax + Foretinib; first compound 0.3162 µM)	relative viability (Obatoclax + Foretinib; first compound 1 µM)	relative viability (Obatoclax + Decitabine; first compound 0.01 µM)	relative viability (Obatoclax + Decitabine; first compound 0.03162 µM)	relative viability (Obatoclax + Decitabine; first compound 0.1 µM)	relative viability (Obatoclax + Decitabine; first compound 0.3162 µM)	relative viability (Obatoclax + Decitabine; first compound 1 µM)
NCI-H1755	0.683	0.596	0.592	0.23	0.229	0.465	0.466	0.425	0.253	0.14	0.913	0.937	0.886	0.908	0.961	0.684	0.617	0.697	0.655	0.662
NCI-H2170	0.43	0.419	0.462	0.326	0.208	0.573	0.563	0.471	0.203	0.112	1	1.02	0.996	1.02	0.975	0.47	0.393	0.47	0.453	0.441
NCI-H2126	0.528	0.534	0.538	0.34	0.256	0.64	0.696	0.662	0.476	0.189	1.11	1.1	1.12	1.16	1.13	0.56	0.536	0.574	0.561	0.587
EPLC-272H	0.353	0.245	0.35	0.109	0.0723	0.344	0.37	0.37	0.15	0.217	0.735	0.577	0.769	0.619	0.499	0.368	0.349	0.43	0.314	0.303
NCI-H1975	0.405	0.35	0.115	0.0978	0.106	0.356	0.394	0.325	0.124	0.061	0.973	1.02	–	0.854	0.296	0.476	0.365	0.322	0.38	0.278
NCI-H3122	0.391	0.368	0.404	0.121	0.105	0.9	0.633	0.811	0.551	0.176	0.97	0.783	0.912	0.925	0.947	0.434	0.489	0.39	0.435	0.453
COR-L 105	0.542	0.4	0.428	0.328	0.256	0.388	0.369	0.302	0.207	0.153	1.01	1.19	1.05	0.534	0.454	0.68	0.665	0.634	0.525	0.407
BEN	0.258	0.266	0.264	0.259	0.174	0.339	0.306	0.32	0.257	0.164	0.864	0.614	–	0.631	0.678	0.756	0.553	0.393	0.624	0.659
NCI-H1915	0.361	0.356	0.371	0.147	0.0571	0.347	0.27	0.28	0.16	0.0845	1.07	1.09	1.06	1.06	1.07	0.268	0.267	0.24	0.256	0.272
NCI-H1650	0.385	0.303	0.139	0.16	0.149	0.376	0.288	0.37	0.125	0.0926	1.12	1.06	1.18	0.91	0.558	0.457	0.352	0.47	0.268	0.267
NCI-H2009	0.512	0.479	0.492	0.113	0.0828	0.325	0.307	0.329	0.15	0.0844	1.24	1.25	1.23	0.477	0.333	0.371	0.384	0.358	0.305	0.213
COR-L23	0.466	0.429	0.4	0.0535	0.0571	0.423	0.445	0.493	0.143	0.0623	0.878	1.05	0.927	0.51	0.323	0.478	0.404	0.488	0.235	0.194
NCI-H460	0.347	0.526	0.554	0.0373	0.0212	0.545	0.546	0.487	0.144	0.0157	0.993	1.01	0.947	0.456	0.157	0.521	0.385	0.522	0.133	0.0944
LCLC-103H	0.361	0.32	0.299	0.178	0.135	0.481	0.483	0.492	0.459	0.237	0.792	0.698	0.778	0.668	0.8	0.7	0.728	0.784	0.763	0.738
HCC-827	0.428	0.379	0.442	0.192	0.101	0.318	0.255	0.282	0.228	0.373	1.01	1.04	1.08	0.964	1.05	0.332	0.273	0.337	0.223	0.355
NCI-H322M	0.807	–	0.748	0.295	0.322	0.268	0.254	0.228	0.206	0.209	0.997	1.02	–	0.853	0.696	0.701	0.687	0.856	0.818	0.662
